Tests used:
Type in all cases: in vivo
[1] = test system: Amaranthus retoflexus (AMARE); assay: B1 Post-Emergence Efficacy - Test 1; settings: 1000 g/ha, after 13 days, five point scale
Experimental: (§1) Seeds of a variety of test species are sown in standard soil in pots:— Solanum nigrum (SOLNI), Amaranthus retoflexus (AMARE), Setaria faberi (SETFA), Alopecurus myosuroides (ALOMY), Echinochloa crus-galli (ECHCG), Ipomoea hederacea (IPOHE), Lolium perenne (LOLPE). After 8 days cultivation (post-emergence) under controlled conditions in a glasshouse (at 24/16° C., day/night; 14 hours light; 65% humidity), the plants are sprayed with an aqueous spray solution derived from the formulation of the technical active ingredient in acetone/water (50:50) solution containing 0.5% Tween 20 (polyoxyethylene sorbitan monolaurate, CAS RN 9005-64-5). Compounds are applied at 1000 g/ha. The test plants are then grown in a glasshouse under controlled conditions in a glasshouse (at 24/16° C., day/night; 14 hours light; 65% humidity) and watered twice daily. After 13 days, the test is evaluated for the percentage damage caused to the plant. The biological activities are assessed on a five point scale (5=80-100%; 4=60-79%; 3=40-59%; 2=20-39%; 1=0-19%). A blank value in the table is indicative that the compound was not tested on that species.

[2] = test system: Ipomoea hederacea (IPOHE); assay: B1 Post-Emergence Efficacy - Test 1; settings: 1000 g/ha, after 13 days, five point scale
Experimental: as §1

[3] = test system: Solanum nigrum (SOLNI); assay: B1 Post-Emergence Efficacy - Test 1; settings: 1000 g/ha, after 13 days, five point scale
Experimental: as §1

[4] = test system: Echinochloa crus-galli (ECHCG); assay: B1 Post-Emergence Efficacy - Test 1; settings: 1000 g/ha, after 13 days, five point scale
Experimental: as §1

[5] = test system: Lolium perenne (LOLPE); assay: B1 Post-Emergence Efficacy - Test 1; settings: 1000 g/ha, after 13 days, five point scale
Experimental: as §1

[6] = test system: Setaria faberi (SETFA); assay: B1 Post-Emergence Efficacy - Test 1; settings: 1000 g/ha, after 13 days, five point scale
Experimental: as §1

[7] = test system: Kochia scoparia (KSHSC); assay: B2 Post-Emergence Efficacy - Test 2; settings: 15 days after application, 0-100 scale
Experimental: (§2) Seeds of a variety of test species (see Table B1) were sown in standard soil in pots. After cultivation for 12 days (post-emergence) under controlled conditions in a glasshouse (at 24/18° C. or 20/16° C., at day/night; 16 hours light; 65% humidity), the plants were sprayed with an aqueous spray solution derived from the formulation of the technical active ingredient dissolved in IF50 (see Table B2 for composition) and adjuvant (Genapol X080) was added to the spray solution at a rate of 0.2% v/v.
(§3) After application, the test plants were grown in a glasshouse under controlled conditions (as above) and watered twice daily. Herbicidal activity was evaluated 15 days after application on a 0-100 scale. The results, where 0=no damage to test plant and 100=total kill of test plant are shown below in Tables 8 to 11.

[8] = test system: Sida spinosa (SIDSP); assay: B2 Post-Emergence Efficacy - Test 2; settings: 15 days after application, 0-100 scale
Experimental: as §2, §3

[9] = test system: Glycine max (GLXMA); assay: B2 Post-Emergence Efficacy - Test 2; settings: 15 days after application; for Herbicidal activity GLXMA: 0-100 scale; for Herbicidal activity on a 0-100 scale, GLXMA: 0=no damage, 100=total kill
Experimental: as §2, §3

[10] = test system: Orysa sativa (ORYSA); assay: B2 Post-Emergence Efficacy - Test 2; settings: 15 days after application; for Herbicidal activity ORYSA: 0-100 scale; for Herbicidal activity on a 0-100 scale, ORYSA: 0=no damage, 100=total kill
Experimental: as §2, §3

[11] = test system: Ipomoea hederacea (IPOHE); assay: B2 Post-Emergence Efficacy - Test 2; settings: 15 days after application, 0-100 scale
Experimental: as §2, §3

[12] = test system: Amaranthus retroflexus (AMARE); assay: B2 Post-Emergence Efficacy - Test 2; settings: 15 days after application, 0-100 scale
Experimental: as §2, §3

[13] = test system: Xanthium strumarium (XANST); assay: B2 Post-Emergence Efficacy - Test 2; settings: 15 days after application, 0-100 scale
Experimental: as §2, §3

[14] = test system: Veronica persica (VERPE); assay: B2 Post-Emergence Efficacy - Test 2; settings: 15 days after application, 0-100 scale
Experimental: as §2, §3

[15] = test system: Avena fatua (AVEFA); assay: B2 Post-Emergence Efficacy - Test 2; settings: 15 days after application, 0-100 scale
Experimental: as §2, §3

[16] = test system: Beta vulgaris (BEAVA); assay: B2 Post-Emergence Efficacy - Test 2; settings: 15 days after application, 0-100 scale
Experimental: as §2, §3

[17] = test system: Brassica napus (BRSNN); assay: B2 Post-Emergence Efficacy - Test 2; settings: 15 days after application, 0-100 scale
Experimental: as §2, §3

## Cc1nn(C)c(=O)c(-c2c(F)ccc(Cl)c2CCc2ccc(C(F)(F)F)nc2)c1O [Compound 1.042, 4-[3-chloro-6-fluoro-2-[2-[6-(trifluoromethyl)-3-pyridyl]ethyl]phenyl]-5-hydroxy-2,6-dimethyl-pyridazin-3-one]
[1]
  percentage damage caused to the plant, AMARE: 5 (5=80-100%)
[2]
  percentage damage caused to the plant, IPOHE: 5 (5=80-100%)
[3]
  percentage damage caused to the plant, SOLNI: 5 (5=80-100%)
[4]
  percentage damage caused to the plant, ECHCG: 5 (5=80-100%)
[5]
  percentage damage caused to the plant, LOLPE: 5 (5=80-100%)
[6]
  percentage damage caused to the plant, SETFA: 5 (5=80-100%)
[7]; 15 g/Ha
  Herbicidal activity KCHSC: 0
[7]; 30 g/Ha
  Herbicidal activity KCHSC: 10
[7]; 60 g/Ha
  Herbicidal activity KCHSC: 10
[7]; 125 g/Ha
  Herbicidal activity KCHSC: 20
[7]; 250 g/Ha
  Herbicidal activity KCHSC: 30
[7]; 500 g/Ha
  Herbicidal activity KCHSC: 60
[8]; 15 g/Ha
  Herbicidal activity SIDSP: 90
[8]; 30 g/Ha
  Herbicidal activity SIDSP: 90
[8]; 60 g/Ha
  Herbicidal activity SIDSP: 100
[8]; 250 g/Ha
  Herbicidal activity SIDSP: 100
[8]; 500 g/Ha
  Herbicidal activity SIDSP: 100
[9]; 15 g/Ha
  Herbicidal activity GLXMA: 60
  Herbicidal activity on a 0-100 scale, GLXMA: 60
[9]; 30 g/Ha
  Herbicidal activity GLXMA: 80
  Herbicidal activity on a 0-100 scale, GLXMA: 80
[9]; 60 g/Ha
  Herbicidal activity GLXMA: 90
  Herbicidal activity on a 0-100 scale, GLXMA: 90
[9]; 125 g/Ha
  Herbicidal activity GLXMA: 90
  Herbicidal activity on a 0-100 scale, GLXMA: 90
[9]; 250 g/Ha
  Herbicidal activity GLXMA: 100
  Herbicidal activity on a 0-100 scale, GLXMA: 100
[9]; 500 g/Ha
  Herbicidal activity GLXMA: 100
  Herbicidal activity on a 0-100 scale, GLXMA: 100
[10]; 15 g/Ha
  Herbicidal activity ORYSA: 0
  Herbicidal activity on a 0-100 scale, ORYSA: 0
[10]; 30 g/Ha
  Herbicidal activity ORYSA: 0
  Herbicidal activity on a 0-100 scale, ORYSA: 0
[10]; 60 g/Ha
  Herbicidal activity ORYSA: 0
  Herbicidal activity on a 0-100 scale, ORYSA: 0
[10]; 125 g/Ha
  Herbicidal activity ORYSA: 0
  Herbicidal activity on a 0-100 scale, ORYSA: 0
[10]; 250 g/Ha
  Herbicidal activity ORYSA: 20
  Herbicidal activity on a 0-100 scale, ORYSA: 20
[10]; 500 g/Ha
  Herbicidal activity ORYSA: 50
  Herbicidal activity on a 0-100 scale, ORYSA: 50
[11]; 15 g/Ha
  Herbicidal activity IPOHE: 100
[11]; 30 g/Ha
  Herbicidal activity IPOHE: 100
[11]; 60 g/Ha
  Herbicidal activity IPOHE: 100
[11]; 125 g/Ha
  Herbicidal activity IPOHE: 100
[11]; 250 g/Ha
  Herbicidal activity IPOHE: 100
[11]; 500 g/Ha
  Herbicidal activity IPOHE: 100
[12]; 30 g/Ha
  Herbicidal activity AMARE: 100
[12]; 60 g/Ha
  Herbicidal activity AMARE: 100
[12]; 125 g/Ha
  Herbicidal activity AMARE: 100
[12]; 250 g/Ha
  Herbicidal activity AMARE: 100
[12]; 500 g/Ha
  Herbicidal activity AMARE: 100
[13]; 15 g/Ha
  Herbicidal activity XANST: 80
[13]; 125 g/Ha
  Herbicidal activity XANST: 90
[13]; 250 g/Ha
  Herbicidal activity XANST: 100
[13]; 500 g/Ha
  Herbicidal activity XANST: 100
[14]; 15 g/Ha
  Herbicidal activity VERPE: 80
[14]; 30 g/Ha
  Herbicidal activity VERPE: 90
[14]; 60 g/Ha
  Herbicidal activity VERPE: 100
[14]; 125 g/Ha
  Herbicidal activity VERPE: 100
[14]; 250 g/Ha
  Herbicidal activity VERPE: 100
[14]; 500 g/Ha
  Herbicidal activity VERPE: 100
[15]; 15 g/Ha
  Herbicidal activity AVEFA: 30
[15]; 30 g/Ha
  Herbicidal activity AVEFA: 60
[15]; 60 g/Ha
  Herbicidal activity AVEFA: 80
[15]; 125 g/Ha
  Herbicidal activity AVEFA: 80
[15]; 250 g/Ha
  Herbicidal activity AVEFA: 90
[15]; 500 g/Ha
  Herbicidal activity AVEFA: 90
[16]; 15 g/Ha
  Herbicidal activity BEAVA: 80
[16]; 30 g/Ha
  Herbicidal activity BEAVA: 70
[16]; 60 g/Ha
  Herbicidal activity BEAVA: 80
[16]; 125 g/Ha
  Herbicidal activity BEAVA: 90
[16]; 250 g/Ha
  Herbicidal activity BEAVA: 90
[16]; 500 g/Ha
  Herbicidal activity BEAVA: 90
[17]; 15 g/Ha
  Herbicidal activity BRSNN: 90
[17]; 30 g/Ha
  Herbicidal activity BRSNN: 90
[17]; 60 g/Ha
  Herbicidal activity BRSNN: 90
[17]; 125 g/Ha
  Herbicidal activity BRSNN: 90
[17]; 250 g/Ha
  Herbicidal activity BRSNN: 90
[17]; 500 g/Ha
  Herbicidal activity BRSNN: 90

Reference: US20230301300A1, “HERBICIDAL COMPOSITIONS” (SYNGENTA CROP PROTECTION AG, priority 2020, published 2023)
